Several values for one entry are separate records, joined by “and”; a condition that tells them apart may be missing. Identical values can stand only once. Entries after “also recorded” stand apart in the source; their conditions may differ.

In one data set the test system is MC38 colon tumors. Nature of the data set: Syngeneic MC38 mouse colon carcinoma model.
The target of data set [1] is T1, A2AR (Homo sapiens, UniProt P29274). The data set can be described thus: pCREB in fresh PBMCs (B cell population) stimulated with NECA. Particulars: primarily B cells.
T1 sequence (P29274 whole entry): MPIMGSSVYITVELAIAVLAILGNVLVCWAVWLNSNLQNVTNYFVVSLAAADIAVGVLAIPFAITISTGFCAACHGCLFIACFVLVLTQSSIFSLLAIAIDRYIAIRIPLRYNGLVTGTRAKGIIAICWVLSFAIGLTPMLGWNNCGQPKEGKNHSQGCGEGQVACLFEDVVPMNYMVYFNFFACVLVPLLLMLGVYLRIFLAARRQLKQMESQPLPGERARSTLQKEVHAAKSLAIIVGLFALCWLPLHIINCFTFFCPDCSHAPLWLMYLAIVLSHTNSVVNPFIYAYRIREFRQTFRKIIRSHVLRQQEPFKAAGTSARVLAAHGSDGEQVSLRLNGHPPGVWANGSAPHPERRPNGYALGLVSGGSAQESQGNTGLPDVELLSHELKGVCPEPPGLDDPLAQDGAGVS
Text: Adenosine signaling via A2AR leads to an increase in intracellular cAMP and subsequent phosphorylation of CREB.
A further data set has as its system solid tumor patients. The data set can be described thus: Phase 1/1b clinical trial in solid tumor patients. It is filed as in vivo, human. The method, then:
After a dose selection stage, pts are treated in 10 disease specific cohorts (5 single agent and 5 combination). Cohorts may be expanded based on response criteria: complete response, partial response or stable disease (SD). Biomarkers are evaluated including immune cells by flow cytometry in peripheral blood and pre/post treatment tumor biopsies as well as adenosine pathway modulation by immunohistochemistry and gene expression.
In step 1 of the trial, patients were dosed with either 100 mg BID for 14 days out of a 28 day cycle, 100 mg BID for 28 days, 200 mg QD for 14 days or 50 mg or 100 mg BID for 14 days in combination with […]® (840 mg Q2W). Pharmacodynamic analysis was conducted on peripheral blood cells to inform dose selection. Step 1 of Phase1/1b was fully enrolled (n=48) and dose was selected (100 mg BID) based on pharmacodynamic analysis of A2AR pathway.

In another data set the test system is CT26 colon tumors. The data set can be described thus: Syngeneic CT26 mouse colon cancer model. Conditions: CPI-444 100 mg/kg oral Day 0, 12 days, anti-PD-1 100 ug i.p. days 7, 9, 11, 13.
The target of data set [2] is T1, A2AR. Nature of the data set: pERK in human CD4+ T cells after TCR cross-linking. Conditions: in the presence of NECA (1 μM).
For data set [3], the system named is NECA-induced pCREB in B cells. The data set can be described thus: NECA-induced pCREB in B cells of whole blood of treated patients (flow cytometry).
Experimental: (§1) On day 14, blood was collected prior to dosing (0 hr, trough) and for a time course post-dose (1.5, 3, 5.5, 8 hr) (FIGS. 26-28). The level of signaling was determined and the percent inhibition on Day 14 compared to Day 1 pre-treatment was calculated.
In data set [4] the test system is NECA-induced pCREB in CD4+ T cells. The data set can be described thus: NECA-induced pCREB in CD4+ T cells of whole blood of treated patients (flow cytometry). (Flow cytometry measures light scatter and fluorescence of single cells or particles in a stream.)
Experimental: as §1
The subject of the next data set is EL4 lymphoma. Nature of the data set: Syngeneic EL4 mouse lymphoma model. In kind it is in vivo. Particulars: CPI-444 10, 30, 100 mg/kg daily oral. The method, then: Syngeneic C57BL/6 female mice (8-10 weeks old) were injected (via subcutaneous route) with EL4 cells.
The target in data set [5] is T1, A2AR. The data set can be described thus: IL-2 and IFNγ secretion from activated primary human PBMCs (AlphaLISA). It is filed as cell-based. Details: endogenous in cells; host or cells: primary human T cells / human PBMCs. Conditions: CPI-444 1 μM; NECA or CGS21680 1 μM; anti-CD3/anti-CD28 48 hours. The method, then:
Purified anti-CD3 and anti-CD28 monoclonal antibodies (1 ug/ml) were then added to activate T cells for 48 hours.
Purified anti-CD3 and anti-CD28 monoclonal antibodies (1 ug/ml) were then added to activate T cells for 48 hours. In this study, AlphaLISA assays (PerkinElmer) analyzed on an EnVision MultiLabel Reader were used to measure cytokine release according to the manufacturer's instructions.
(Alpha assays give light when donor and acceptor beads are brought close together.)

The nature of data set [6]: Plasma levels of CPI-444 in patients. Particulars: Day 14. It is filed as in vivo, human.
The conditions of data set [7]: cited from earlier work.
Data set [8] has as its target T1, A2AR. Nature of the data set: cAMP production in NECA-stimulated primary human T cells (LANCE Ultra cAMP). In kind it is cell-based. The arrangement: endogenous in cells; host or cells: primary human T cells / human PBMCs. The method, then:
Adenosine signaling through A2AR leads to increases in the levels of cAMP.
T cells were isolated from human PBMC by negative selection and activated via CD3/CD28 stimulation for 48 hours to induce A2AR expression. Stimulated T cells were then “rested” for 24 hours by removal of CD3/CD28 stimulation in order to minimize background levels of cAMP.
For orientation: Changes in cAMP serve as a functional read-out for many G protein-coupled receptors.

In the next data set the test system is Renca. Conditions: CPI-444 10 mg/kg from Day 16, 14 days; 50 mg/kg Cyclophosphamide on first day.

Text for CT26 colon tumors: Treatment continued for 12 days.
Treatment continued for 7 days. […] Treatment continued for 7 days.
Treatment continued for 7 days.

For the molecule `Cc1ccc(-c2nc(N)nc3c2nnn3Cc2cccc(COC3CCOC3)n2)o1` (centres unmarked) [CPI-444], the “mice in which rechallenge tumors were fully rejected” value in the data set on MC38 colon tumors (9 mice rechallenged, over 15 days after first 5 days) came to 9 mice. The tumor growth entry is reported as “did not inhibit tumor growth” in the data set on MC38 colon tumors (CPI-444 1 mg/kg daily oral gavage 28 days, from one day after engraftment); “significantly inhibits; also recorded: significant inhibition of tumor growth” in the data set on MC38 colon tumors (CPI-444 10 mg/kg daily oral, 10 mg/kg); “significantly inhibits; also recorded: significant inhibition of tumor growth” in the data set with MC38 colon tumors (CPI-444 100 mg/kg daily oral, 100 mg/kg). In addition, the eliminates tumors in the data set on MC38 colon tumors (CPI-444 100 mg/kg from Day 9, 14 days, anti-CTLA-4 9H10 100 ug days 9, 12, 15, 18) is 20 % of mice. The “tumor growth, single agents” value with MC38 colon tumors (CPI-444 100 mg/kg from Day 9, anti-CTLA-4 100 ug) is on record as “moderate tumor growth inhibition”; with MC38 colon tumors (CPI-444 100 mg/kg oral Day 0, 12 days, anti-PD-L1 200 ug i.p. days 7, 10, 13, 16), “inhibition of tumor growth”; with CT26 colon tumors, “inhibition of tumor growth; also recorded: inhibits the growth; also recorded: non-significant reductions in tumor growth”. In the data set on MC38 colon tumors (CPI-444 dose response study), the eliminated tumors was 30 % of mice. The “tumor growth on re-challenge of cured mice” value in the data set on MC38 colon tumors (MC38 re-challenge) is reported as “fully inhibited”. For the same molecule, the signs of reoccurrence result in the data set on MC38 colon tumors (additional 6 weeks after end of study) is recorded as “No tumor growth was observed”. The complete tumor regression result in the data set on MC38 colon tumors (all cohorts (1, 10, 100 mg/kg)) is recorded as “observed in a subset of mice”. Moreover, the “inhibition of tumor growth, dose response” value in the data set with MC38 colon tumors (daily CPI-444 1, 10, 100 mg/kg) is listed as “dose-dependent inhibition”. Moreover, the tumor elimination with MC38 colon tumors (daily CPI-444 1, 10, 100 mg/kg) is 9/30. In the data set on MC38 colon tumors (mice with complete tumor growth inhibition, new MC38 engraftment, no additional treatment), the protected from rechallenge is recorded as 100%. Further, the “levels of immune checkpoints GITR, OX40, LAG3 on tumor infiltrating lymphocytes and circulating T cells” value in the data set on MC38 colon tumors (mouse, in vivo) is listed as “modulated”. The “CD73 expression in tumors (IHC, frequency x intensity)” value in the data set with MC38 colon tumors (relative to control) is given as “significantly higher”. Further, the “NECA-induced CREB phosphorylation” value on A2AR [1] is “completely inhibited”. Also, the “Grade 3 or 4 treatment related adverse events” value in the data set with solid tumor patients (7 pts treated to date) is “no Grade 3 or 4 treatment related adverse events”. Besides, the “TCR clonality following treatment” value in the data set with solid tumor patients (Nivolumab-refractory lung cancer patient, FIG. 21C) was “increased clonality”. For the same molecule, the tumor response result with solid tumor patients (Nivolumab-refractory lung cancer patient, single agent 100 mg po BID x 28 days/cycle) is reported as “Tumor regression”. In addition, the “PD-1+/CD8+ (activated CD8) and memory cell frequencies in blood” value in the data set with solid tumor patients (single agent and combination cohorts) is “Increases”. The “TCR repertoire in peripheral blood” value in the data set with solid tumor patients (single agent, some patients) is “robust changes; also recorded: induced”. For the same molecule, the tolerability result (in the data set on solid tumor patients (solid tumor patients); in [7] (non-oncology indications)) was “well tolerated” each time. The “increases in PD-1+CD8+ cells in peripheral blood compared to baseline” value in the data set on solid tumor patients (the two pts with SD) was 1.7 fold and 2.4 fold. Also, the “ERK signaling / pERK levels in CD4+ T cells” value on A2AR [2] was “restored pERK levels in a dose-dependent manner”. Further, the “inhibition of pCREB” value in data set [3] (50 mg BID cohort) was “not high enough for sustained inhibition; also recorded: Variable inhibition”; in [3] (100 mg BID cohort), “highest pCREB inhibition at trough and near complete inhibition after taking their morning dose; also recorded: high pCREB inhibition at trough and near complete inhibition after taking their morning dose”; in data set [3] (200 mg QD cohort) it was “achieves high peak levels but is not maintained at trough; also recorded: Variable inhibition”. In data set [3] (100 mg BID single agent, Day 14), the “patients with complete and sustained inhibition of NECA-induced pCREB” value is 7 of 7. For the same molecule, the “pCREB induction by NECA” value in data set [3] (following 14 days of treatment) is “attenuated”. The “inhibition of NECA induced increase of pCREB” value in data set [3] (one subject, 200QD for 14 days, 1 μM NECA) is given as “partial inhibition”. Also, the “CPI-444 plasma level above which pCREB inhibition is near complete” value in data set [4] is recorded as “greater than 2,000 ng/mL”. Moreover, the “response of established primary tumors” value with EL4 lymphoma was “minimal therapeutic response”. Further, the “tumor growth in regional lymph nodes (number and size of enlarged nodes)” value in the data set with EL4 lymphoma was “significant dose-dependent inhibition; also recorded: significant, dose-dependent decrease”. The “IFNγ secretion in presence of A2AR agonist” value on A2AR [5] is “restored”. At A2AR [5], the “IL-2 secretion in presence of A2AR agonist” value is “restored”. The “time of peak plasma drug levels” value in data set [6] was 3 h. The adverse events result in data set [7] (75 subjects previously dosed) was “no significant adverse events”. At A2AR [8] (FIG. 6), the “cAMP production upon NECA stimulation, dependence on CPI-444 dose” value is on record as “dose-dependent manner”. In addition, the “production of cAMP upon NECA treatment” value at A2AR [8] (all levels of NECA tested (10^-5 to 10^-9 M), 10 minutes) was “completely blocked”.

As to `O=P1(N(CCCl)CCCl)NCCCO1` (centres unmarked) [Cyclophosphamide], the “tumor growth / response rate” value with Renca is given as “slight tumor growth inhibition”.

Turning to `COc1cccc2c1C(=O)c1c(O)c3c(c(O)c1C2=O)C[C@@](O)(C(=O)CO)C[C@@H]3O[C@H]1C[C@H](N)[C@H](O)[C@H](C)O1` [Doxorubicin, reference compound], in the data set on MC38 colon tumors (CPI-444 100 mg/kg from Day 11, 14 days, 4 mg/kg Doxorubicin on first day), the tumor growth result is “slight tumor growth inhibition”.

The values are drawn from patent US20190022096A1, “METHODS OF TREATING CANCER” (Corvus Pharmaceuticals, Inc., priority 2017, published 2019).
